From BindingDB's records for doi:10.1016/j.bmcl.2011.01.107 (Institute of Chemical Physics, 2011) come the findings set out here.

In the experiment the target is NAD-dependent malic enzyme (Escherichia coli K-12, maeA) (UniProt P26616). As to the kind of experiment: Inhibition of Escherichia coli K-12 recombinant NAD-dependent malic enzyme by Dixon plot.
Chain of NAD-dependent malic enzyme (Escherichia coli K-12, maeA) (P26616 whole entry, looked up): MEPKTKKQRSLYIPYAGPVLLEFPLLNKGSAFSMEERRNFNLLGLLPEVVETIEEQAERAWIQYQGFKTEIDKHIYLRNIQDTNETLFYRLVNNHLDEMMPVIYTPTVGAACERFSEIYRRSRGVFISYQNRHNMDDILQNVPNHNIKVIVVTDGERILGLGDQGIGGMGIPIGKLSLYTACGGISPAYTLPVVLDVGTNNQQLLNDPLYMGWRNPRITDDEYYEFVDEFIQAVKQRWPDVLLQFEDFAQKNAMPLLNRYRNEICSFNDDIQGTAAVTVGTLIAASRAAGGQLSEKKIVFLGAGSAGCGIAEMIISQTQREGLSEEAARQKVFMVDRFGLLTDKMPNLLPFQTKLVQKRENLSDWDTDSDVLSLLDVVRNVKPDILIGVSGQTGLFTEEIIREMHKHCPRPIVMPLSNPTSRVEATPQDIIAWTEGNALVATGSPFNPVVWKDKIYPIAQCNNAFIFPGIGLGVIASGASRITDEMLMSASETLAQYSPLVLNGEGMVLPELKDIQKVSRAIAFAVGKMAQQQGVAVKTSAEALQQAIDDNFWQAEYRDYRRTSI

One may read the Ki as the equilibrium dissociation constant of an inhibitor or competing ligand from its target. Turning to `COc1ccc(-c2cn([C@@H]3O[C@H](COP(=O)(O)O)[C@@H](O)[C@H]3O)nn2)cc1` [5-O-phosphate-1-N-(4'-(4''-methoxyhenyl))-[1',2',3']-triazol-beta-D-ribofuranoside], the Ki was 57 µM.
